Measured values: patent publication US11351185B2, “Use of isovalerylspiramycins as anti-cancer agents to inhibit metastasis” (priority 2020, dated 2022)
“Also recorded” adds a separate entry of the source.

Assays:
786-O and RCC4 cells = test: Cell-cycle analysis by flow cytometry, RCC cells; format: cell-based
Method: To confirm the cytotoxic effect observed in the glioblastoma cell lines, the inventors assessed ISP I's effect on renal cell carcinoma (RCC) cell lines (ACHN, UM-RC-2, RCC4 and 786-0). Cell viability was assessed similarly via CKK8 analysis. […] (FIG. 4C, D).
For monitoring cell-cycle arrest of ISP I-treated cells, Click-iT EdU Flow Cytometry Assay Kits were used, a product of ThermoFisher Scientific. Cells were co-cultured with EdU at a concentration of 10 μM for 1 hour. After fixation and permeabilization, EdU-positive cells were labeled with Alexa Fluor 647 fluorescein. DAPI also was used for measuring total DNA content to identify differences in cell cycle phases. Data were collected by means of a BD LSRFortessa flow cytometer using FlowJo software. Cells that are positive with EdU and DAPI were in S-Phase of the cell cycle.

[1] = test system: SELH, Nucleolin, Fibrillarin, POL1, NPM, p53; test: Nucleolar stress response, immunofluorescence and western blot; format: cell-based; details: LN229
Method: (§1) SELH is localized in the nucleolus, which is a sensor of oxidative stress. Yang et al., Nature communications 7: 13599 (2016); Novoselov et al., J. Biol. Chem. 282: 11960 (2007). […] JNK2 activation by oxidative stress inactivated RNA polymerase I (POL1) transcription factor TIF1A in the nucleoli to down-regulate rRNA synthesis. Mayer et al., Genes Dev. 19: 933 (2005). To investigate whether the ribosomal biogenesis was disrupted by ISP I, pre-rRNA transcription was evaluated using real-time RT-PCR analysis in LN229 cells. […] To examine the mechanisms by which ISP I disrupts POL1 transcription, the inventors initially evaluated JNK2 activity and the overall state of the transcription machinery in ISP I-treated LN229 cells.
Western blotting was performed to detect the protein expression level of SELH, NRF2 and γH2AX regulated by ISP I. The cells were lysed by RIPA buffer from ThermoFisher Scientific, and the concentration was measured using DC Protein Assay, a Bio-Rad product. Equal amounts of protein of each sample were loaded for gel electrophoresis and were transferred to nitrocellulose membrane, blocked and incubated overnight at 4° C. with primary antibodies. Then the membranes were washed with TBST (3 times, 10 min each). Exposure, imaging, and data analysis were done using a KwikQuant Imager system, a product of Kindle Biosciences (Greenwich, Conn. USA). The following antibodies were used: anti-phospho-histone H2A.X (Ser139), anti-NRF2 (Cell Signaling, Danvers, Mass. USA), anti-SELH (Abcam, Cambridge, Mass. USA), anti-GAPDH (Millipore, Temecula, Calif. USA).
For immunofluorescence assay, cells were seeded on a 35-mm confocal dish with glass bottom and were treated with ISP I. After 24 hours, cells were fixed with 4% paraformaldehyde and were labeled with primary antibodies against γH2AX overnight at 4° C. Then the cells were incubated with secondary antibody conjugated with Alexa Fluor-594 (Invitrogen), followed by staining with DAPI for nuclei. Images were obtained using Zeiss LSM 780 microscopy (Carl Zeiss, Oberkochen Germany).

POL1 occupancy on rDNA = test: Chromatin immunoprecipitation (CHIP) assay; format: cell-based; details: LN229 cells
Method: as §1
ChIP assays were performed using a SimpleCHIP Enzymatic Chromatin IP Kit (Magnetic beads) following the manufacturer's instructions (Cell Signaling Technology; catalog 9003). Cross-linked protein-DNA complexes were precipitated by incubating with rabbit anti-POL1A (CST; 24799s) or rabbit IgG (negative control) overnight and then with magnetic beads for 2 hours. Purified DNA fragments, […], were analyzed quantitatively by real-time PCR with primers against the rDNA promoter and gene body, following the standard-curve method. The standard curves were created by serial dilution of 2% input chromatin DNA. […]

LN229-luc tumors = test: Intracranial LN229-luc glioblastoma xenograft mouse model; format: in vivo, NSG mice
Excerpt: The inventors first assessed ISP I's anti-tumor activity in an intracranial mouse model (FIG. 11A). NSG mice were inoculated with 1×10^5 LN229-luc cells in the right-frontal cortex. After 7 days, intracranial tumor growth was confirmed via noninvasive in vivo bioluminescence imaging and mice were randomized into ISP I or DMSO (control) treatment groups.
Mice experiments were approved by the National Institute of Neurological Disorders and Stroke (NINDS) and National Cancer Institute (NCI) Animal Use and Care Committees. For intracranial xenografts establishment, NOD-Prkdc^scidII2rg^tmiWjl (NSG) mice (6-8 weeks old from the NCI-Frederick animal facility) were inoculated intracranially with 100,000 LN229-luc cells suspended in 2 μL Hank's Balanced Salt Solution (HBSS), a product of Crystalgen (Commack, N.Y. USA). After one week, luciferin signals were detected to confirm the survival of tumor cells in mice. The mice were assigned to the indicated groups according to the signal intensity, in order to keep the baseline balanced. ISP I was injected intraperitoneally daily at a dose of 66 mg/kg body weight for 24 days. The mice in control group were injected with the same volume of corn oil or saline. The viability of tumors was monitored every four days. […]

[2] = Preclinical observation on doubled i.p. dose; format: in vivo; details: mice; one week of continuing administration
Method: Furthermore, the medicament is administered in “a therapeutically effective amount,” i.e., in a single dose or in multiple, divided subdoses at a suitable interval, e.g., two, three or more subdoses over a day or another appropriate schedule, to a prescribed total amount of active, such that metastasis is inhibited in the subject. Like the dose schedule, the effective amount of medicament will depend on a variety of factors, including the age and condition of the subject, the nature and extent of the cancerous condition, any contraindications, and the pharmacokinetic and pharmacodynamic characteristics of the medicament. For example, based on an accepted guide to animal-to-human dose conversion, see Nair R. Jacob, J. Basic. Clin. Pharm.

human cancer lines = details: MCF-7, MDA-MB-231, HepG2, A549, H460, H1299, 786-0, 769-P, U251, A172, U937, HeLa, PC3, PANC-1, TE-1, SGC-7901, HT-29, HL-60; cited from earlier work

Compound: COC1C(O)CC(=O)OC(C)CC=CC=CC(OC2CCC(N(C)C)C(C)O2)C(C)CC(CC=O)C1OC1OC(C)C(OC2CC(C)(O)C(OC(=O)CC(C)C)C(C)O2)C(N(C)C)C1O (stereo not drawn) [ISP I, 4″-isolvalerylspiramycin I]
- cell distribution in cell-cycle phases (786-O and RCC4 cells): clear G0/G1 arrest; also recorded: induced cell-cycle arrest in the G0/G1 phase
- NPM expression (western blot) [1]: decreased nucleolar protein, NPM and P53 expression in a dose dependent manner; also recorded: reduced NMP expression
- SELH expression in the nucleolus (immunofluorescence) ([1]; 8 h, 10 μg/mL): loss and reduction of SELH expression in the nucleolus
- nucleolar labeling of Nucleolin, Fibrillarin, POL1, NPM (immunofluorescence) ([1]; 8 h, 10 μg/mL): loss and dispersion of nucleolar proteins (Neucleolin, Fibrillarin, POL1, NPM)
- POL1 recruitment / occupancy on rDNA (CHIP) (POL1 occupancy on rDNA): reduces the occupancy of POL1 on rNDA; also recorded: significantly reduced POL1 recruitment to the promoter coding regions of rDNA
- tumor growth / burden (bioluminescence imaging) (LN229-luc tumors; 66 mg/kg body weight i.p. every day): reduced LN229-luc tumor burden compared with the untreated group; also recorded: significantly reduced tumor growth
- response in tumor-derived bioluminescence images (LN229-luc tumors; three mice, day 24, 66 mg/kg i.p. daily): complete response
- adverse effect on doubling of the i.p. dose [2]: severe diarrhea
- effect on proliferation in vitro of human cancer lines (human cancer lines): inhibitory effect
